Assays:
[1] = target: full-length recombinant human NEK7 (Homo sapiens (Human), UniProt Q8TDX7); experiment: NEK7 Enzymatic Assay ([33P]-ATP, casein substrate); format: biochemical
Protocol: Casein substrate (from bovine milk, hydrolyzed and partially dephosphorylated mixture of α, β and a caseins, obtained from Sigma Aldrich, catalogue #C4765, diluted in distilled water to a final concentration of 1 mg/mL) and full-length recombinant human NEK7 (expressed by baculovirus in Sf9 insect cells using a N-terminal GST tag, obtained from SignalChem, catalogue #N09-10G, 0.1 μg/μL) were mixed in assay buffer (20 mM Hepes pH 7.5, 10 mM MgCl2, 1 mM EGTA, 0.02% Brij35, 0.02 mg/ml BSA, 0.1 mM Na3VO4, 2 mM DTT, 1% DMSO). Compounds of interest (serial 3-fold dilution in DMSO from 10 μM to 0.5 nM) or vehicle (1% DMSO) were dispensed into the kinase reaction mixture by Acoustic technology (Echo550; nanoliter range). After incubation at room temperature for 20 minutes, the kinase reaction was initiated by addition of [^33P]-ATP (specific activity […]) and the mixture was incubated at room temperature for 2 hours. The reaction was then stopped by spotting the reaction mixture on strips of phosphocellulose P81 paper. Following washing, the radioactivity of the P81 paper was measured and kinase activity data were expressed as the percent remaining kinase activity in test samples compared to vehicle reactions. IC50 values and curve fits were obtained using Prism (GraphPad Software).

[2] = test system: IL-1β release from THP-1 cells; experiment: IL-1β Release Assay (PMA-differentiated THP-1 cells, LPS + nigericin); format: cell-based; settings: Homo sapiens, 250 ng/mL LPS, 20 μM nigericin
Protocol: Approximately 1.5 million THP-1 cells were plated in each well of a 6-well TC plate and incubated with 40 nM PMA in RPMI (10% FBS, 1% Penstrep) for 24 hours. The media was then removed and cells were rested in RPMI (10% FBS, 1% Penstrep) for 24 hours after which time the media was removed and cells were pre-treated for 2 hours with various concentrations of compounds of interest (typically serial 3-fold dilution in RPMI+5% FBS, concentrations ranging from 1 μM to 0.5 nM) in RPMI (5% FBS). The media was again removed and cells were incubated with 250 ng/mL LPS and compounds of interest (concentrations as above) in RMPI (5% FBS) for 2 hours. The media was removed for a last time and cells were incubated with 20 μM nigericin and compounds of interest (concentrations as above) in Opti-MEM for 30 minutes. Cell media was then collected and the amount of cleaved IL-1β was determined using a JESS instrument (Protein Simple) and standard protocols. Cleaved Il-1β antibody was obtained from Cell Signaling (catalogue #83186S) and was used at 1:20 dilution in antibody diluent 2. Protein Simple 1× anti-Rabbit HRP secondary antibody was used along with Protein Simple luminol and peroxide for chemiluminescent detection. Primary antibody incubation time was increased from 30 minutes to 60 minutes.

full-length recombinant human NEK7, sequence (Q8TDX7 whole entry): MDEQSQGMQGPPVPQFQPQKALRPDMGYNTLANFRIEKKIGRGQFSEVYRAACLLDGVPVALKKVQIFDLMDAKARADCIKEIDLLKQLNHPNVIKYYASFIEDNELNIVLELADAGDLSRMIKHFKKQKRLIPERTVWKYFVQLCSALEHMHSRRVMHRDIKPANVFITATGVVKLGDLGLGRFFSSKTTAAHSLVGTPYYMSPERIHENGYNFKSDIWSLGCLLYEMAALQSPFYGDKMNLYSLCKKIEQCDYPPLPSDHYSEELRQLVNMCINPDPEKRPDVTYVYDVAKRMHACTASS

| Structure (SMILES) | IC50 [1] [nM] | IC50 [2] [nM] |
| --- | --- | --- |
| CC(C)(F)c1cc(NC(=O)Nc2ccc(-c3cn(C4CC4)c4ncnc(N)c34)cc2F)on1 [Example 9, 1-(4-(4-amino-7-cyclopropyl-7H-pyrrolo[2,3-d]pyrimidin-5-yl)-2-fluorophenyl)-3-(3-(2-fluoropropan-2-yl)isoxazol-5-yl)urea] | < 150 | 151 to 300 |
| CC(C)(C#N)c1cc(NC(=O)Nc2ccc(-c3cn(C4CC4)c4ncnc(N)c34)cc2F)on1 [Example 35, 1-(4-(4-amino-7-cyclopropyl-7H-pyrrolo[2,3-d]pyrimidin-5-yl)-2-fluorophenyl)-3-(3-(2-cyanopropan-2-yl)isoxazol-5-yl)urea] | 151 to 300 | 151 to 300 |
| CC(C)(O)Cn1cc(-c2ccc(NC(=O)Nc3cc(C4(C(F)(F)F)CC4)no3)c(F)c2)c2c(N)ncnc21 [Example 14, 1-(4-(4-amino-7-(2-hydroxy-2-methylpropyl)-7H-pyrrolo[2,3-d]pyrimidin-5-yl)-2-fluorophenyl)-3-(3-(1-(trifluoromethyl)cyclopropyl)isoxazol-5-yl)urea] | 151 to 300 | < 150 |
| Nc1ncnc2c1c(-c1ccc(NC(=O)Nc3cc(C4(C(F)(F)F)CC4)on3)c(F)c1)cn2C1CC1 [Example 10, 1-(4-(4-amino-7-cyclopropyl-7H-pyrrolo[2,3-d]pyrimidin-5-yl)-2-fluorophenyl)-3-(5-(1-(trifluoromethyl)cyclopropyl)isoxazol-3-yl)urea] | 151 to 300 | < 150 |

More lines, now with the values ahead:

| IC50 [1] [nM] | IC50 [2] [nM] | Structure (SMILES) |
| --- | --- | --- |
| < 150 | < 150 | CC1(c2cc(NC(=O)Nc3ccc(-c4cn(C5CC5)c5ncnc(N)c45)cc3F)on2)CC1 [Example 17, 1-(4-(4-amino-7-cyclopropyl-7H-pyrrolo[2,3-d]pyrimidin-5-yl)-2-fluorophenyl)-3-(3-(1-methylcyclopropyl)isoxazol-5-yl)urea] |
| < 150 | < 150 | CC1(c2cc(NC(=O)Nc3ccc(-c4cn(C5CC5)c5ncnc(N)c45)cc3F)on2)CCC1 [Example 34, 1-(4-(4-amino-7-cyclopropyl-7H-pyrrolo[2,3-d]pyrimidin-5-yl)-2-fluorophenyl)-3-(3-(1-methylcyclobutyl)isoxazol-5-yl)urea] |
| < 150 | 151 to 300 | CC(C)(C)c1cc(NC(=O)Nc2ccc(-c3cn(C4CC4)c4ncnc(N)c34)cn2)on1 [Example 3, 1-(5-(4-amino-7-cyclopropyl-7H-pyrrolo[2,3-d]pyrimidin-5-yl)pyridin-2-yl)-3-(3-(tert-butyl)isoxazol-5-yl)urea] |
